Reference: PubChem BioAssay (NCI)
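48-hour exposure; five concentrations; linearly interpolated endpoints. At the TGI there is no net growth.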 Where a SMILES comes first, the peptide text is derived from it. [ ]: non-standard residue; d: D form. The star is where a group is joined. ξ: configuration not given here. ξF = NC(Cc1ccccc1)C(=O)O; Cbz = O=C(OCc1ccccc1)*; Aib = CC(C)(N)C(=O)O; NHNH2 = NN*

Assays:
Assay in all cases: growth of human tumour cells (NCI), 48 h
NCI-H226 lung = tested on: NCI-H226 lung
HT29 colon = tested on: HT29 colon
SK-OV-3 ovarian = tested on: SK-OV-3 ovarian
SW-620 colon = tested on: SW-620 colon
LOX IMVI melanoma = tested on: LOX IMVI melanoma
NCI/ADR-RES ovarian = tested on: NCI/ADR-RES ovarian
SNB-19 CNS = tested on: SNB-19 CNS
UACC-257 melanoma = tested on: UACC-257 melanoma
HS 578T breast = tested on: HS 578T breast
MDA-N = tested on: MDA-N
SF-268 CNS = tested on: SF-268 CNS
MCF7 breast = tested on: MCF7 breast
UO-31 renal = tested on: UO-31 renal
SF-295 CNS = tested on: SF-295 CNS
NCI-H522 lung = tested on: NCI-H522 lung
SR leukemia = tested on: SR leukemia
NCI-H460 lung = tested on: NCI-H460 lung

| SMILES | TGI (NCI-H226 lung) [µM] | TGI (HT29 colon) [µM] | TGI (SK-OV-3 ovarian) [µM] | TGI (SW-620 colon) [µM] | TGI (LOX IMVI melanoma) [µM] | TGI (NCI/ADR-RES ovarian) [µM] | TGI (SNB-19 CNS) [µM] | TGI (UACC-257 melanoma) [µM] | TGI (HS 578T breast) [µM] | TGI (MDA-N) [µM] | TGI (SF-268 CNS) [µM] | TGI (MCF7 breast) [µM] | TGI (UO-31 renal) [µM] | TGI (SF-295 CNS) [µM] | TGI (NCI-H522 lung) [µM] | TGI (SR leukemia) [µM] | TGI (NCI-H460 lung) [µM] |
| --- | --- | --- | --- | --- | --- | --- | --- | --- | --- | --- | --- | --- | --- | --- | --- | --- | --- |
| CC(=O)C1=C(C)N2C(=NC3=C(CCc4ccccc43)C2c2ccc(F)cc2)S1 (stereo not given) | > 100 | > 100 | > 100 | > 100 | > 100 | > 100 | > 100 | > 100 | > 100 | > 100 | > 100 | > 100 | > 100 | > 100 | – | – | – |
| CCc1n[nH]c(=O)n1/N=C/c1ccccc1O | – | – | > 100 | > 100 | > 100 | > 100 | > 100 | > 100 | 99 | > 100 | > 100 | > 100 | > 100 | > 100 | > 100 | > 100 | – |
| COc1ccc(N=Nc2c(C)c(C#N)c(=S)n(C3OC(CO)C(O)C(O)C3O)c2-c2ccccc2)cc1 (stereo not given) | – | > 100 | 83.3 | > 100 | 99.6 | > 100 | > 100 | > 100 | 55.3 | > 100 | > 100 | 84.7 | > 100 | 98.5 | – | > 100 | > 100 |
| CC(C)(NC(=O)OCc1ccccc1)C(=O)NC(Cc1ccccc1)C(=O)NN (stereo not given) (Cbz-[Aib]-[ξF]-NHNH2) | > 100 | > 100 | > 100 | > 100 | > 100 | > 100 | > 100 | > 100 | > 100 | > 100 | > 100 | > 100 | > 100 | > 100 | > 100 | – | > 100 |
| CC(=O)C(=[N+]=[N-])C(=O)N1CCOC1=O | > 10 | > 10 | > 10 | > 10 | > 10 | > 10 | > 10 | > 10 | > 10 | > 10 | > 10 | > 10 | > 10 | > 10 | – | > 10 | > 10 |
| COC(=O)C(N)CCCC(N)C(=O)NC(C)C(=O)NC(CCC(=O)NCCNCCNc1c2ccccc2nc2cccc([N+](=O)[O-])c12)C(N)=O (stereo not given) | 39.4 | 47.7 | > 100 | 47.3 | 43 | > 100 | > 67.7 | 70.5 | 38.8 | 28.1 | 10.7 | 58.5 | 59.4 | > 100 | – | > 100 | 55 |
| CC(Nc1ncc2c(n1)-c1ccccc1OC2)C(=O)O (stereo not given) | > 100 | > 100 | > 100 | > 100 | > 100 | > 100 | > 100 | > 100 | > 100 | > 100 | > 100 | > 100 | > 100 | > 100 | – | > 100 | > 100 |
| CCOC(=O)c1c[nH]c2c(Sc3ccccc3)nccc2c1=O | > 100 | > 100 | > 100 | > 100 | > 100 | > 100 | > 100 | > 100 | > 100 | > 100 | > 100 | > 100 | > 100 | > 100 | 74 | – | > 100 |
| S=c1[nH]nc(CNc2ccc(-c3n[nH]c(=S)n3-c3ccc(Cl)cc3)cc2)n1-c1ccc(Cl)cc1 | > 100 | 66.7 | > 100 | > 100 | – | > 100 | > 100 | > 100 | – | 86.1 | > 100 | > 100 | 32.4 | 81.2 | 48.5 | – | > 100 |
| O=C(O)CCCC(=O)Nn1c(Cc2ccc(Cl)cc2)n[nH]c1=O | > 100 | > 100 | > 100 | > 100 | > 100 | > 100 | – | > 100 | > 100 | > 100 | > 100 | > 100 | > 100 | > 100 | > 100 | > 100 | – |
| CC(=O)Nc1c(S(=O)(=O)c2ccccc2)c(C)c(C)n1CCN(C)C | > 100 | > 100 | > 100 | > 100 | – | > 100 | > 100 | > 100 | > 100 | > 100 | > 100 | > 100 | > 100 | > 100 | > 100 | > 100 | > 100 |
| COc1c(CC=C(C)C)c(O)c(C(CC(C)C)c2c(O)c3c(c(C(C)=O)c2O)OC(C(C)(C)O)C3)c(O)c1C(C)=O (stereo not given) | – | > 12.5 | > 12.5 | > 12.5 | > 12.5 | 11.1 | > 12.5 | 12.4 | > 12.5 | > 12.5 | > 12.5 | 9.87 | > 12.5 | > 12.5 | > 12.5 | 6.93 | – |
| Nc1ccc2c(O)cc(=O)[nH]c2n1 | > 100 | > 100 | > 100 | > 100 | – | > 100 | > 100 | > 100 | > 100 | > 100 | > 100 | > 100 | > 100 | > 100 | > 100 | > 100 | > 100 |
| Cc1nc(N)c(N2CCN(C(=O)O)CC2)c(=O)[nH]1 | > 100 | > 100 | – | > 100 | > 100 | > 100 | > 100 | > 100 | > 100 | > 100 | > 100 | > 100 | > 100 | > 100 | > 100 | > 100 | > 100 |
